Here are results for ten compounds from patent US12421279B2, “Cyclic peptide antiviral agents and methods using same” (priority 2016, dated 2025).

The test system of one series is HOS.T4.R5 cells. Particulars: highest concentrations used 100 μM, 24 h post-exposure. The protocol: cPTs 36 and 37 were tested for cytotoxicity in vitro with HOS.T4.R5 cells. The latter were seeded at […] per well and incubated with peptides as described elsewhere herein for the infection inhibition assays. Cell viability was determined using the tetrazolium salt premix reagent WST-1 from TaKaRa Bio, Inc., by following the manufacturer's protocol. The formazan product was measured 24 h post-exposure using a microplate reader (Molecular Devices) at an absorbance wavelength of 450 nm.

[1] abbreviates: read-out: HIV-1Bal.01 infection inhibition IC50, HIV-1Bal.01 pseudovirus, HOS.T4.R5 cells.
Where [2] appears, read: read-out: HIV-1 IC50, HIV-1Bal.01 infection inhibition, Table 1.

Values joined by “and” are separate entries in the source; they are usually repeats but may differ in a detail not shown here. Identical values can stand only once. Like-named read-outs stand apart in the source and are kept apart here. *1 amine or outer side, *2 acyl side, *3 side chain or, on linkers, in order; H or OH if unused. Where a SMILES comes first, the peptide text is derived from it. Bridges are numbered along the chain shown (N, C = ends). [ ]: non-standard residue; d: D form. X15 = CC(C)(C)c1ccc(-c2cn([C@H]3C[C@@H](C(=O)[*:2])N([*:1])C3)nn2)cc1; X18 = O=C([C@@H]1C[C@H](n2cc(-c3ccc(-c4ccccc4)cc3)nn2)CN1[*:1])[*:2]; X1 = O=C([C@@H]1C[C@H](n2cc(-c3ccc(-c4cccs4)cc3)nn2)CN1[*:1])[*:2]; X16 = CC(C)c1ccc(-c2cn([C@H]3C[C@@H](C(=O)[*:2])N([*:1])C3)nn2)cc1; X4 = O=C([C@@H]1C[C@H](n2cc(C3C4CC5CC(C4)CC3C5)nn2)CN1[*:1])[*:2]; X6 = O=C([C@@H]1C[C@H](n2cc(-c3ccc(-c4cccs4)s3)nn2)CN1[*:1])[*:2]; X13 = O=C([C@@H]1C[C@H](n2cc(-c3cc4ccccc4cn3)nn2)CN1[*:1])[*:2]; X9 = CCc1ccc(-c2cn([C@H]3C[C@@H](C(=O)[*:2])N([*:1])C3)nn2)cc1; X8 = O=C([C@@H]1C[C@H](n2cc(Cc3ccc(Cl)cc3)nn2)CN1[*:1])[*:2]; X14 = O=C([C@@H]1C[C@H](n2cc(Cc3ccccc3)nn2)CN1[*:1])[*:2]; Suc = O=C(CCC(=O)[*:2])[*:1]

In the case of `CC[C@H](C)[C@@H]1NC(=O)[C@H](CC(N)=O)NC(=O)[C@@H](N)CC(=O)NCCCC[C@@H](C(N)=O)NC(=O)[C@H](Cc2c[nH]c3ccccc23)NC(=O)[C@@H]2C[C@H](n3cc(C4C5CC6CC(C5)CC4C6)nn3)CN2C1=O` (stereo partly shown) [compound 18] (H-DNI[X4]WK-NH2; lactam 1-6), the IC50 (usually the concentration that inhibits the measured activity by half) is approximately 1.3 µM with HIV-1Bal.01 (setting [1]) and 1.4 ± 0.2 µM with HIV-1Bal.01 (setting [2]). The matching figures for `CC[C@H](C)[C@@H]1NC(=O)[C@H](CC(N)=O)NC(=O)[C@@H](N)CC(=O)NCCCC[C@@H](C(N)=O)NC(=O)[C@H](Cc2c[nH]c3ccccc23)NC(=O)[C@@H]2C[C@H](n3cc(Cc4ccccc4)nn3)CN2C1=O` [compound 19] (H-DNI[X14]WK-NH2; lactam 1-6): approximately 0.438 µM and 0.438 ± 0.012 µM.

Take `CCc1ccc(-c2cn([C@H]3C[C@H]4C(=O)N[C@@H](Cc5c[nH]c6ccccc56)C(=O)N[C@H](C(N)=O)CCCCNC(=O)C[C@H](N)C(=O)N[C@@H](CC(N)=O)C(=O)N[C@@H]([C@@H](C)CC)C(=O)N4C3)nn2)cc1` [compound 20] (H-DNI[X9]WK-NH2; lactam 1-6): the values for the IC50 in the series with HIV-1Bal.01 (setting [1]) and in the series on HIV-1Bal.01 (setting [2]) were approximately 1.2 µM and 1.2 ± 0.5 µM, respectively. In the case of `CC[C@H](C)[C@@H]1NC(=O)[C@H](CC(N)=O)NC(=O)[C@@H](N)CC(=O)NCCCC[C@@H](C(N)=O)NC(=O)[C@H](Cc2c[nH]c3ccccc23)NC(=O)[C@@H]2C[C@H](n3cc(-c4ccc(C(C)C)cc4)nn3)CN2C1=O` [compound 21] (H-DNI[X16]WK-NH2; lactam 1-6), the IC50 with HIV-1Bal.01 (setting [1]) is approximately 0.9 µM; in the series with HIV-1Bal.01 (setting [2]), 0.9 ± 0.045 µM. In the case of `CC[C@H](C)[C@@H]1NC(=O)[C@H](CC(N)=O)NC(=O)[C@@H](N)CC(=O)NCCCC[C@@H](C(N)=O)NC(=O)[C@H](Cc2c[nH]c3ccccc23)NC(=O)[C@@H]2C[C@H](n3cc(-c4ccc(C(C)(C)C)cc4)nn3)CN2C1=O` [compound 22] (H-DNI[X15]WK-NH2; lactam 1-6), the IC50 in the series with HIV-1Bal.01 (setting [1]) was approximately 0.35 µM; in the series on HIV-1Bal.01 (setting [2]) it was 0.35 ± 0.025 µM. `CC[C@H](C)[C@@H]1NC(=O)[C@H](CC(N)=O)NC(=O)[C@@H](N)CC(=O)NCCCC[C@@H](C(N)=O)NC(=O)[C@H](Cc2c[nH]c3ccccc23)NC(=O)[C@@H]2C[C@H](n3cc(-c4ccc(-c5ccccc5)cc4)nn3)CN2C1=O` [compound 23] (H-DNI[X18]WK-NH2; lactam 1-6): the IC50 in the series on HIV-1Bal.01 (setting [1]) turned out to be 0.269 µM. With `CC[C@H](C)[C@@H]1NC(=O)[C@H](CC(N)=O)NC(=O)[C@@H](N)CC(=O)NCCCC[C@@H](C(N)=O)NC(=O)[C@H](Cc2c[nH]c3ccccc23)NC(=O)[C@@H]2C[C@H](n3cc(-c4cc5ccccc5cn4)nn3)CN2C1=O` [compound 30] (H-DNI[X13]WK-NH2; lactam 1-6), the IC50 in the series on HIV-1Bal.01 (setting [1]) was approximately 5 µM; in the series on HIV-1Bal.01 (setting [2]) it was 5 ± 0.85 µM. Turning to `CC[C@H](C)[C@@H]1NC(=O)[C@H](CC(N)=O)NC(=O)[C@@H](N)CC(=O)NCCCC[C@@H](C(N)=O)NC(=O)[C@H](Cc2c[nH]c3ccccc23)NC(=O)[C@@H]2C[C@H](n3cc(Cc4ccc(Cl)cc4)nn3)CN2C1=O` [compound 31] (H-DNI[X8]WK-NH2; lactam 1-6), the half-inhibitory concentration (IC50) in the series on HIV-1Bal.01 (setting [1]) was approximately 1.8 µM; in the series with HIV-1Bal.01 (setting [2]), 1.8 ± 0.5 µM. Regarding `CC[C@H](C)[C@@H]1NC(=O)[C@H](CC(N)=O)NC(=O)[C@@H](N)CC(=O)NCCCC[C@@H](C(N)=O)NC(=O)[C@H](Cc2c[nH]c3ccccc23)NC(=O)[C@@H]2C[C@H](n3cc(-c4ccc(-c5cccs5)s4)nn3)CN2C1=O` [compound 37] (H-DNI[X6]WK-NH2; lactam 1-6), the “cytotoxicity (cell viability)” value in the series with HOS.T4.R5 cells is given as “no cytotoxicity was detected”. Besides, in the series with HIV-1Bal.01 (setting [1]), the IC50 was 0.405 µM. `CC[C@H](C)[C@@H]1NC(=O)[C@H](CC(N)=O)NC(=O)CCC(=O)NCCCC[C@@H](C(N)=O)NC(=O)[C@H](Cc2c[nH]c3ccccc23)NC(=O)[C@@H]2C[C@H](n3cc(-c4ccc(-c5cccs5)cc4)nn3)CN2C1=O` [compound 38] (NI[X1]WK-NH2; linker N-5 via Suc): the “fold decrease in potency compared to 36” value in the series with HIV-1Bal.01 (infection inhibition) is “about 8 fold”. Further, the concentration for half-maximal inhibition (IC50) with HIV-1Bal.01 (setting [1]) was ~0.882 µM and 0.882 µM.
